One data set deals with T1, PDE10 from pig striatum (Sus scrofa, UniProt A0A287B941).
T1 construct: "Striatum from male hybrid pigs (150 kg)"
Briefly: Inhibition of PDE10 from pig striatum. Format: biochemical. As to conditions: 0.1 μM [3H]-cAMP, 37° C., 30 minutes. On the procedure:
Phosphodiesterase isoenzyme 10 (PDE10) activity was determined in preparations of human recombinant PDE10A and PDE10 from pig striatum, respectively.
Striatum from male hybrid pigs (150 kg) were collected and frozen at −70° C.
At the day of preparation 0.5 g striatum was homogenised in 10 ml 50 mM Tris/Mg-buffer at 4° C. and centrifuged for one hour at 100000 g.
Nonspecific activity was tested without the enzyme. […] For determination of IC50 values the Hill-plot, 2-parameter-model, was used.
Phosphodiesterase isoenzyme 10 (PDE10) activity was determined in preparations of rat, pig and guinea pig striatum respectively. Striatum from male Wistar rats (180-200 g), male hybrid pigs (150 kg) and male guinea pigs (CRL (HA), 500 g) respectively were collected and frozen at −70° C.
For the enzymatic testing of PDE10 activity 0.5 g of the isolated and frozen striatum was homogenised in 10 ml 50 mM Tris/Mg-buffer at 4° C. and centrifuged for one hour at 100000 g.

What is called IC50 is the concentration needed to halve the response being measured. Read a low IC50 as greater potency in that assay. As usually defined, the melting point is the temperature of the solid-liquid transition.

Compound `COc1ccc2nc(Cl)c3cnc(C(C)C)n3c2n1` [Intermediate A14] showed a melting point of 162 to 164 °C. Moreover, half-maximal inhibition against PDE10 from pig striatum (IC50) required 128 nM.

`CCCc1ncc2c(Cl)nc3ccc(OC)nc3n12` [Intermediate A13] came in with a melting point of 153 to 155 °C. This compound also displayed an IC50 on PDE10 from pig striatum of 53 nM.

As for `CCCc1nc(C)c2c(Cl)nc3ccc(C)nc3n12` [Intermediate A19], the melting point lay in the range of 99 to 101 °C. Moreover, the IC50 against PDE10 from pig striatum was 9 nM.

Consider “8-methoxy-3-methyl-4-(3-methyl-ureido)-1-propyl-imidazo[1,5-a]pyrido[3,2-e]pyrazine [Example 66a]”, for which the IC50 on PDE10 from pig striatum turned out to be 752 nM.

On PDE10 from pig striatum, “4-chloro-3-methyl-1-propyl-imidazo[1,5-a]pyrido[3,2-e]pyrazin-8-ol [Intermediate A25]” had an IC50 of 63 nM.

In turn, “4-amino-8-methoxy-3-methyl-1-phenethyl-imidazo[1,5-a]pyrido[3,2-e]pyrazine [Example 9b]” registered an IC50 at PDE10 from pig striatum of 38 nM.

At PDE10 from pig striatum, “3,4-dimethyl-8-methoxy-1-phenyl-imidazo[1,5-a]pyrido[3,2-e]pyrazine dihydrochloride [Example 48a]” yielded an IC50 of 7 nM.

Consider `CCCc1nc(C)cn1-c1ccc2nc(N)c3c(C)nc(CCC)n3c2n1` [Example 6b, 4-amino-3-methyl-1-propyll-8-(2-propyl-4-methyl-imidazol-1-yl)-imidazo[1,5-a]pyrido[3,2-e]pyrazine], for which the melting point was 215 to 221 °C. For the same compound, 1 nM corresponded to half-maximal inhibition against PDE10 from pig striatum (IC50).

For “4-isopropylsulfonylamino-8-methoxy-3-methyl-1-propyl-imidazo[1,5-a]pyrido[3,2-e]pyrazine [Example 75a]”, the IC50 against PDE10 from pig striatum stood at 78 nM.

On PDE10 from pig striatum, “4-difluoromethoxy-3-methyl-1-propyl-imidazo[1,5-a]pyrido[3,2-e]pyrazine-8-ol [Example 59a]” displayed a half-maximal inhibitory concentration (IC50) of 11 nM.

“4-ethylsulfonylamino-8-methoxy-3-methyl-1-propyl-imidazo[1,5-a]pyrido[3,2-e]pyrazine [Example 71a]” showed an IC50 against PDE10 from pig striatum of 126 nM.

For “8-difluoromethoxy-3-methyl-4-methylsulfonylamino-1-propyl-imidazo[1,5-a]pyrido[3,2-e]pyrazine [Example 87a]”, the IC50 on PDE10 from pig striatum stood at 15 nM.

Turning to “1-propyl-3,4-dimethyl-imidazo[1,5-a]pyrido[3,2-e]pyrazine [Example 52a]”, the IC50 at PDE10 from pig striatum came to 53 nM.

In turn, “8-difluoromethoxy-3,4-dimethyl-1-propyl-imidazo[1,5-a]pyrido[3,2-e]pyrazine [Example 54a]” had an IC50 at PDE10 from pig striatum of 18 nM.

Compound “1-cyclohexyl-3,4-dimethyl-8-methoxy-imidazo[1,5-a]pyrido[3,2-e]pyrazine [Example 44a]” showed an IC50 against PDE10 from pig striatum of 3 nM.

On to `CCCc1nc(C)c2c(Cl)nc3cccnc3n12` [Intermediate A12], for which the melting point is 138 to 140 °C. The midpoint of inhibition against PDE10 from pig striatum, the IC50, lay at 38 nM.

Compound “8-methoxy-3-methyl-1-propyl-4-ureido-imidazo[1,5-a]pyrido[3,2-e]pyrazine [Example 67a]” showed an IC50 at PDE10 from pig striatum of 83 nM.

Take `CCc1nc(C)c2c(Cl)nc3ccc(N(CC)CC)nc3n12` [Intermediate A20]: the melting point lay within 145 to 150 °C. For the same compound, at PDE10 from pig striatum, the IC50 was 11 nM.

At PDE10 from pig striatum, “8-methoxy-3-methyl-5-oxo-1-propyl-imidazo[1,5-a]pyrido[3,2-e]pyrazine [Example 60a]” had an IC50 of 23 nM.

Consider “1-hexyl-8-methoxy-3-methyl-4-methylsulfonylamino-imidazo[1,5-a]pyrido[3,2-e]pyrazine [Example 79a]”, for which the midpoint of inhibition at PDE10 from pig striatum, the IC50, lay at 11 nM.

Turning to `CCc1nc(C)c2c(Cl)nc3ccc(N4CCN(C)CC4)nc3n12` [Intermediate A22], the melting point was in the range of 283 to 285 °C. On PDE10 from pig striatum, this compound came in with an IC50 of 52 nM.

Take `CCCCCCc1nc(C)c2c(Cl)nc3ccc(OC)nc3n12` [Intermediate A5]: the melting point lay within 115 to 117 °C. The IC50 on PDE10 from pig striatum came to 71 nM.

On PDE10 from pig striatum, “3,4-dimethyl-1-hexyl-8-methoxy-imidazo[1,5-a]pyrido[3,2-e]pyrazine [Example 45a]” came in with an IC50 of 53 nM.

As for `COc1ccc2nc(Cl)c3c(C)nc(-c4ccccc4)n3c2n1` [Intermediate A9], the melting point fell in the range of 240 to 242 °C. On PDE10 from pig striatum, inhibition was half-maximal at 4 nM (IC50).

At PDE10 from pig striatum, “8-methoxy-3-methyl-4-(3-isopropyl-ureido)-1-propyl-imidazo[1,5-a]pyrido[3,2-e]pyrazine [Example 68a]” gave an IC50 of 141 nM.

At PDE10 from pig striatum, “8-methoxy-3-methyl-1-propyl-4-trifluoromethylsulfonylamino-imidazo[1,5-a]pyrido[3,2-e]pyrazine [Example 73a]” gave an IC50 of 19 nM.

The compound `COc1ccc2nc(Cl)c3c(C)nc(C4CCCCC4)n3c2n1` [Intermediate A4] came in with a melting point of 211 to 213 °C. On PDE10 from pig striatum, this compound had an IC50 of 2 nM.

As to “4-chloro-8-difluoromethoxy-3-methyl-1-propyl-imidazo[1,5-a]pyrido[3,2-e]pyrazine [Intermediate A28]”, the IC50 at PDE10 from pig striatum stood at 8 nM.

For “4-azido-8-methoxy-3-methyl-1-propyl-imidazo[1,5-a]pyrido[3,2-e]pyrazine [Example 31a]”, half-maximal inhibition against PDE10 from pig striatum (IC50) required 171 nM.

As to “3-methyl-4-methylsulfonylamino-1-propyl-imidazo[1,5-a]pyrido[3,2-e]pyrazin-8-ol [Example 86a]”, the IC50 on PDE10 from pig striatum is 23 nM.

For the compound `CCc1nc(C)cn1-c1ccc2nc(C)c3c(C)nc(CC)n3c2n1` [Example 57a], the melting point was in the range of 73 to 75 °C. At PDE10 from pig striatum, this compound registered a concentration for half-maximal inhibition (IC50) of 11 nM.

The compound `CCc1nc(C)c2n1-c1nc(OC)ccc1NC2` [Example 93a, 1-ethyl-8-methoxy-3-methyl-4,5-dihydro-imidazo[1,5-a]pyrido[3,2-e]pyrazine] had a melting point of 139 to 142 °C.

With “4-amino-1-hexyl-8-methoxy-3-methyl-imidazo[1,5-a]pyrido[3,2-e]pyrazine [Example 7b]”, at PDE10 from pig striatum, the IC50 was determined as 48 nM.

`CCCc1ncc2c(C)nc3ccc(OC)nc3n12` [Example 53a] came in with an IC50 against PDE10 from pig striatum of 43 nM.

The compound “8-methoxy-4-(methoxycarbonyl-methyl-amino)-3-methyl-1-propyl-imidazo[1,5-a]pyrido[3,2-e]pyrazine [Example 65a]” came in with an IC50 on PDE10 from pig striatum of 559 nM.

On PDE10 from pig striatum, “3,4-dimethyl-8-methoxy-1-(2-chlorophenyl)-imidazo[1,5-a]pyrido[3,2-e]pyrazine [Example 49a]” gave an IC50 of 1 nM.

Compound “4-amino-1-(4-fluoro-phenyl)-8-methoxy-3-methyl-imidazo[1,5-a]pyrido[3,2-e]pyrazine [Example 12b]” had a 50% inhibitory concentration (IC50) against PDE10 from pig striatum of 6 nM.

On PDE10 from pig striatum, `CCCc1nc(C)c2c(Cl)nc3ccc(N4CCCCC4)nc3n12` [Intermediate A21] had a half-inhibitory concentration (IC50) of 5 nM.

As for “8-methoxy-3-methyl-1-phenethyl-4-methylsulfonylamino-imidazo[1,5-a]pyrido[3,2-e]pyrazine [Example 80a]”, on PDE10 from pig striatum, the IC50 is 37 nM.

“3,4-dimethyl-8-methoxy-1-pentyl-imidazo[1,5-a]pyrido[3,2-e]pyrazine [Example 43a]”: half-maximal inhibition against PDE10 from pig striatum (IC50) required 35 nM.

At PDE10 from pig striatum, “3,4-dimethyl-8-methoxy-1-(3,3,3-trifluoropropyl)-imidazo[1,5-a]pyrido[3,2-e]pyrazine [Example 42a]” yielded an IC50 of 59 nM.
